According to patent publication US20240101548A1, “HYDROXAMATE COMPOUND, PREPARATION METHOD THEREFOR AND APPLICATION THEREOF” (SHENZHEN CHIPSCREEN BIOSCIENCES CO., LTD., priority 2020, published 2024):
Where two headings read alike, the source gives them in different places.

Columns and labels:
[1] = tested on: IL-10-induced JAK1/TYK2 signal pathway; experiment: IL-10-induced JAK1/TYK2 signal pathway STAT3-Luc reporter gene assay in U2OS cells; type: cell-based, human; conditions: U2OS cells, STAT3-Luc reporter, IL-10 10 ng/mL, read-out: Half inhibition dose (IC50) on IL-10-induced JAK1/TYK2 signal pathway
Procedure, shortened: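 Luciferase read-out (560 nm) corrected by GFP signal (Ex485/Em520) gives IL-10 pathway activity, and IC50 is derived from inhibition rates. Cells were U2OS transfected with IL-10R1 plus STAT3-Luc reporter, pretreated 6 h with 0.1–300 nM compound, then stimulated 24 h with IL-10 at 10 ng/mL.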

[2] = tested on: IL-2-induced JAK1/JAK3 signal pathway; experiment: IL-2-induced proliferation of KHYG-1 cells (JAK1/JAK3 signal); type: cell-based, human; conditions: Homo sapiens; KHYG-1 cell proliferation, IL-2 10 ng/mL, 72 hours; read-out: Inhibition activity IC50 on IL-2-induced JAK1/JAK3 signal pathway
Procedure, shortened: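 Controls were wells lacking both compound and cytokine (0%) and compound-free IL-2 wells (100%). C50 was calculated from inhibition rates across doses.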

[3] = tested on: EPO-induced JAK2 signal pathway; experiment: EPO-induced proliferation of UT-7 cells (JAK2 signal); type: cell-based, human; conditions: Homo sapiens, UT7; UT-7 cell proliferation, EPO 10 ng/mL, 72 hours; read-out: Inhibition activity IC50 on EPO-induced JAK2 signal pathway
Procedure, shortened: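 […] was derived from inhibition rates across doses, scaled between wells lacking compound and cytokine (0) and EPO without compound (100), using alamarBlue fluorescence at Ex530/Em590. Compound (final 0-10000 nM) and 10 ng/mL EPO were given to UT-7 cells at 15000 per well for 72 h at 37° C.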

[4] = tested on: INF-α-induced pSTAT5 in human PBMC; experiment: INF-α-induced pSTAT5 in human PBMC (FACS, CD3 positive cells); type: cell-based; conditions: IFN-α 30 ng/ml, read-out: Inhibition activity IC50 on INF-α-induced pSTAT5 in human PBMC
Description: hPBMC (available from Shanghai AoNeng Biotechnology Co., Ltd.) was inoculated in 96-well plate, added with compound of the present invention (at concentrations of 40 nM and 200 nM), incubated for 60 min (compound in concentrations of 2 nM, 10 nM respectively during the incubation); added with 30 ng/ml of stimulating factor IFN-α (BioLegend) together with anti-CD3 antibody (Biolegend) and then continued to be incubated for 30 min. After the incubation, each well was added with 1 mL of fixing solution (BD Biosciences), the obtained mixture was incubated for 10 min followed by centrifugation, added with 400 μL/well of Perm III (BD Biosciences), followed by further incubation at 4° C. for 30 min. The obtained mixture was added with mouse anti-human pSTAT5 antibody (Alexa Fluor® 647 Conjugate), followed by incubation at room temperature for 40 min. Fluorescence intensity of pSTAT5 in CD3 positive cells was detected by FACS.
Inhibition rate at individual compound concentration was calculated with the following formula:
Inhibition rate=(MFI value(IFN-α-stimulated control)−MI value(2/10 nM compound treated group)/MFI value(IFN-α-stimulated control)[…]
wherein: MFI value meant fluorescence intensity value; IFN-α-stimulated control meant control group which was operated similarly to the experimental groups but no compound of the present invention was added.

[5] = In-vivo pharmacokinetic test in mice; conditions: mouse, po; BALB/c female mice, gavage 10 mg/kg, plasma
Description: LC-MS/MS method is used to determine the drug concentration in the plasma of mice at different times after intragastric administration of the compound of the example. Relevant pharmacokinetic parameters are calculated to study the pharmacokinetic behavior of the compound of the present invention in mice, thereby evaluating the pharmacokinetic characteristics thereof.
Test animal was healthy adult BALB/c female mouse (provided by Chengdu Yaokang Biotechnology Co., Ltd.);
Compound administration and sample collection: compound was administered to BALB/c female mice by gavage (10 mg/kg). At 0.25, 0.5, 1, 2, 4, 6, 8, and 24 hours after administration, 60 μL of whole blood of the mouse fundus venous plexus were collected and centrifuged at 4000 rpm for 10 min to provide plasma.
Sample analysis: 10 μL of mouse plasma samples were respectively added with 290 μL of acetonitrile solution containing internal standard to precipitate proteins. After swirling for 10 min and centrifuging at 4000 rpm for 10 min, 200 μL of supernatant was added to 96-well plate, and analyzed by LC-MS/MS at an injection volume of 1 μL.

TYK2 JH2 domain = TYK2 JH2 domain (Homo sapiens (Human), UniProt P29597); experiment: TYK2 JH2 domain FRET tracer assay; type: binding; conditions: FRET 665/615 nm; read-out: Inhibition activity IC50 on TYK2 JH2 domain
TYK2 JH2 domain, sequence (P29597 589-875): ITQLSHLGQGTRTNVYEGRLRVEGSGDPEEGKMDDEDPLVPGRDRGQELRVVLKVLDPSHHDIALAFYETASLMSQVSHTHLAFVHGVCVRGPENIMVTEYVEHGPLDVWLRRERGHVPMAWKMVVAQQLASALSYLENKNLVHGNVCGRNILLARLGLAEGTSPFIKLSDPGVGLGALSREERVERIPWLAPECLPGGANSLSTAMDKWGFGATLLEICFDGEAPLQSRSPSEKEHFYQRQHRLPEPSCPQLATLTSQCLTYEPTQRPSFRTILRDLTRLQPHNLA
Description: Compound of the present invention formulated into different concentrations (series 3 times dilutions, started from 60 μM, 11 concentrations in total) was added to 384-well plate, followed by 5 μL of enzyme (i.e., TYK2 JH2 domain), Tb antibody (Cisbio) and tracer. The mixture was incubated at 25° C. for 60 min and left at 4° C. overnight.

| IC50 ([1]; Homo sapiens, U2OS) | AUC [5] | Cmax [5] | Compound | IC50 [2] | IC50 [3] | IC50 ([4]; Homo sapiens, PBMC) | IC50 (TYK2 JH2 domain) | IC50 ([1]; Homo sapiens) | IC50 [1] | IC50 [4] |
| --- | --- | --- | --- | --- | --- | --- | --- | --- | --- | --- |
| 1.79 nM |  |  | CCONC(=O)c1cnc(NC(=O)C2CC2)cc1Nc1cc(F)cc(-c2ncn(C3CC3)n2)c1OC [Example 205] | > 10000 nM | > 10000 nM | < 2 nM |  |  |  |  |
| 0.889 nM | 34.3 µM·h | 16.4 µM | CCONC(=O)c1cnc(Nc2cc(C)nc(C)n2)cc1Nc1cccc(-c2ncc(F)cn2)c1OC [Example 208, 6-((2,6-dimethylpyrimidin-4-yl)amino)-N-ethoxy-4-((3-(5-fluoropyrimidin-2-yl)-2-methoxyphenyl)amino)nicotinamide] | > 10000 nM | > 10000 nM |  |  |  |  |  |
| 1.98 nM |  |  | CCONC(=O)c1cnc(Nc2cc(C)nc(C)n2)cc1Nc1cc(F)cc(-c2ncc(F)cn2)c1OC [Example 211] | > 10000 nM | > 10000 nM | < 2 nM |  |  |  |  |
| 0.146 nM | 49.3 µM·h | 18 µM | CCONC(=O)c1cnc(Nc2cc(C)nc(C)n2)cc1Nc1cccc(-c2cnc(C)cn2)c1OC [Example 213] | > 10000 nM | > 10000 nM |  |  |  |  |  |
| 0.36 nM |  |  | CCONC(=O)c1cnc(Nc2cc(C)nc(C)n2)cc1Nc1cc(F)cc(-c2ncc(C)cn2)c1OC [Example 225, 6-((2,6-dimethylpyrimidin-4-yl)amino)-N-ethoxy-4-((5-fluoro-2-methoxy-3-(5-methylpyrimidin-2-yl)phenyl)amino)nicotinamide] | > 10000 nM | > 10000 nM | < 2 nM |  |  |  |  |
|  |  |  | CCONC(=O)c1cnc(Nc2cc(C)nc(C)n2)cc1Nc1cccc(-c2cnccn2)c1OC [Example 248, 6-((2,6-dimethylpyrimidin-4-yl)amino)-N-ethoxy-4-((2-methoxy-3-(pyrazin-2-yl)phenyl)amino)nicotinamide] | > 10000 nM | > 10000 nM | < 2 nM |  | 1.04 nM |  |  |
|  |  |  | BMS-986165 |  |  |  |  |  | 3.03 nM | 2 nM |

| Compound | IC50 ([1]; Homo sapiens, U2OS) | AUC [5] | Cmax [5] | IC50 [2] | IC50 [3] | IC50 ([4]; Homo sapiens, PBMC) | IC50 (TYK2 JH2 domain) | IC50 ([1]; Homo sapiens) | IC50 [1] | IC50 [4] |
| --- | --- | --- | --- | --- | --- | --- | --- | --- | --- | --- |
| CCONC(=O)c1cnc(Nc2cc(C)nc(C)n2)cc1Nc1cc(F)cc(-c2cnc(C)cn2)c1OC [Example 214] | 0.16 nM | 41.9 µM·h | 9.21 µM | > 10000 nM | > 10000 nM |  | 0.09 nM |  |  |  |
| CCONC(=O)c1cnc(Nc2cc(C)nc(C)n2)cc1Nc1cc(F)c(C(C)C)cc1N(C)S(C)(=O)=O [Example 229, 6-((2,6-dimethylpyrimidin-4-yl)amino)-N-ethoxy-4-((5-fluoro-4-isopropyl-2-(N-methylmethanesulfonamido)phenyl)amino)nicotinamide] | 0.424 nM |  |  | > 10000 nM | > 10000 nM |  | 0.05 nM |  |  |  |
| CCONC(=O)c1cnc(NC(=O)C2CC2(F)F)cc1Nc1ccc(C2CC2)cc1N(C)S(C)(=O)=O (stereo not drawn) [Example 277, 4-((4-cyclopropyl-2-(N-methylmethanesulfonamido)phenyl)amino)-6-(2,2-difluorocyclopropyl-1-carboxamido)-N-ethoxy nicotinamide] | 0.466 nM |  |  | > 10000 nM | > 10000 nM |  | 0.12 nM |  |  |  |
